Patent publication US20240041042A1, “1-(PYRIDYL)-5-AZINYLPYRAZOLE DERIVATIVES, AND THEIR USE FOR CONTROL OF UNDESIRED PLANT GROWTH” (Bayer Aktiengesellschaft, priority 2020, published 2024)
Read-outs that look alike come from different tables or passages of the source.

Columns and labels:
Assay type in all cases: in vivo
Viola tricolor (VIOTR) [1] = assay: Pre-emergence herbicidal action against VIOTR; conditions: 320 g/ha, Viola tricolor
How it was run: (§1)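 Pre-emergence soil-surface spray, WP/EC formulation, 0.5% additive, 600 l/ha water, rates of 320 g/ha or lower. Greenhouse, ~3 wk. Visual score, % of untreated control (100% = plants dead, 0% = like control).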

Brassica napus (BRSNW) = conditions: crop plant compatibility, in comparison to untreated controls
How it was run: (§2)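 Crop injury rated visually in percent against untreated plants roughly 3 weeks after treatment (0% no effect, 100% plants dead). Compounds, as WP or EC with 0.5% additive in 600 l/ha water, were applied to the covering soil right after sowing; greenhouse growth. Suffixes a, b, c denote different dosages.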

Glycine max (GLXMA) = conditions: pre-emergence, crop plant compatibility, in comparison to untreated controls
How it was run: as §2

Oryza sativa (ORYSA) [2] = conditions: pre-emergence, crop plant compatibility, in comparison to untreated controls
How it was run: as §2

[3] = test system: Triticum aestivum (TRZAS); conditions: pre-emergence, crop plant compatibility, in comparison to untreated controls
How it was run: as §2

Zea mays (ZEAMX) [4] = conditions: pre-emergence, crop plant compatibility, in comparison to untreated controls
How it was run: as §2

[5] = test system: Pharbitis purpurea (PHBPU); assay: Post-emergence herbicidal action against PHBPU
How it was run: (§3)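 Rates were 320 g/ha or below, applied as aqueous WP/EC spray with 0.5% additive (600 l/ha) onto one-leaf-stage plants. About 3 weeks later in the greenhouse, damage was scored visually against untreated plants on a 0–100% scale, where 100% means plants died.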

Oryza sativa (ORYSA) [6] = conditions: crop plant compatibility
How it was run: (§4)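 Foliar application at the one-leaf stage: WP/EC formulation, 0.5% additive, 600 l/ha water. Greenhouse-grown in sandy loam. Endpoint is visual % injury relative to untreated controls at about 3 weeks.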

[7] = test system: Triticum aestivum (TRZAS); conditions: crop plant compatibility, effect vs untreated controls
How it was run: as §4

Zea mays (ZEAMX) [8] = conditions: for Post-emergence action against ZEAMX in %: crop plant compatibility, effect vs untreated controls
How it was run: as §4

[9] = test system: Amaranthus retroflexus (AMARE); assay: Pre-emergence herbicidal action against AMARE; conditions: visual scoring after about 3 weeks vs untreated controls
How it was run: as §1

Avena fatua (AVEFA) [10] = assay: Pre-emergence herbicidal action against AVEFA; conditions: 320 g/ha, visual scoring after about 3 weeks vs untreated controls
How it was run: as §1

[11] = test system: Echinochloa crus-galli (ECHCG); assay: Pre-emergence herbicidal action against ECHCG; conditions: dosage 320 g/ha
How it was run: as §1

Lolium rigidum (LOLRI) [12] = assay: Pre-emergence herbicidal action against LOLRI; conditions: dosage 320 g/ha
How it was run: as §1

[13] = test system: Matricaria inodora (MATIN); assay: Pre-emergence herbicidal action against MATIN; conditions: dosage 320 g/ha
How it was run: as §1

Setaria viridis (SETVI) [14] = assay: Pre-emergence herbicidal action against SETVI; conditions: dosage 320 g/ha
How it was run: as §1

[15] = test system: Abutilon theophrasti (ABUTH); assay: Post-emergence herbicidal action against ABUTH; conditions: 320 g/ha, visual rating about 3 weeks after treatment vs untreated controls (100% = plants have died, 0% = like control plants)
How it was run: as §3

[16] = test system: Alopecurus myosuroides (ALOMY); assay: Post-emergence herbicidal action against ALOMY; conditions: visual rating about 3 weeks after treatment vs untreated controls (100% = plants have died, 0% = like control plants)
How it was run: as §3

[17] = test system: Amaranthus retroflexus (AMARE); assay: Post-emergence herbicidal action against AMARE
How it was run: as §3

Avena fatua (AVEFA) [18] = assay: Post-emergence herbicidal action against AVEFA; conditions: visual rating about 3 weeks after treatment
How it was run: as §3

Lolium rigidum (LOLRI) [19] = assay: Post-emergence herbicidal action against LOLRI; conditions: dosage 320 g/ha
How it was run: as §3

[20] = test system: Matricaria inodora (MATIN); assay: Post-emergence herbicidal action against MATIN; conditions: dosage 320 g/ha
How it was run: as §3

Setaria viridis (SETVI) [21] = assay: Post-emergence herbicidal action against SETVI
How it was run: as §3

Viola tricolor (VIOTR) [22] = assay: Post-emergence herbicidal action against VIOTR
How it was run: as §3

[23] = test system: Alopecurus myosuroides (ALOMY); assay: Pre-emergence herbicidal action against ALOMY; conditions: 320 g/ha; scored visually after about 3 weeks; 100% = plants have died
How it was run: as §1

[24] = test system: Verconica persica (VERPE); assay: Post-emergence herbicidal action against VERPE; conditions: 320 g/ha, VERPE
How it was run: as §3

[25] = 80 g/ha, effect in comparison to untreated controls
[26] = 320 g/ha, effect in comparison to untreated controls
[27] = 320 g/ha, visual rating about 3 weeks after treatment
[28] = 80 g/ha, visual rating about 3 weeks after treatment vs untreated controls (100% = plants have died, 0% = like control plants)
[29] = 20 g/ha, effect vs untreated controls

Row | SMILES | Pre-emergence action against VIOTR in % (Viola tricolor (VIOTR) [1]) [%] | Pre-emergence action against BRSNW in % (Brassica napus (BRSNW); 80 g/ha) [%] | Pre-emergence action against BRSNW in % (Brassica napus (BRSNW); 320 g/ha) [%] | Pre-emergence action against GLXMA in % (Glycine max (GLXMA); 80 g/ha) [%] | Pre-emergence action against GLXMA in % (Glycine max (GLXMA); 320 g/ha) [%] | Pre-emergence action against ORYSA in % (Oryza sativa (ORYSA) [2]; 320 g/ha) [%] | Pre-emergence action against TRZAS in % ([3]; 80 g/ha) [%] | Pre-emergence action against ZEAMX in % (Zea mays (ZEAMX) [4]; 80 g/ha) [%] | Pre-emergence action against ZEAMX in % (Zea mays (ZEAMX) [4]; 320 g/ha) [%] | Post-emergence action against PHBPU in % ([5]; dosage 320 g/ha) [%] | Post-emergence action against ORYSA in % (Oryza sativa (ORYSA) [6]; [25]) [%] | Post-emergence action against ORYSA in % (Oryza sativa (ORYSA) [6]; [26]) [%] | Post-emergence action against TRZAS in % ([7]; 80 g/ha) [%] | Post-emergence action against ZEAMX in % (Zea mays (ZEAMX) [8]; 80 g/ha) [%] | Pre-emergence action against AMARE in % ([9]; 320 g/ha) [%] | Pre-emergence action against LOLRI in % (Lolium rigidum (LOLRI) [12]) [%] | Pre-emergence action against SETVI in % (Setaria viridis (SETVI) [14]) [%] | Pre-emergence action against ORYSA in % (Oryza sativa (ORYSA) [2]; 80 g/ha) [%] | Pre-emergence action against ALOMY [23] [%] | Post-emergence action against AMARE in % [17, 28] [%] | also measured
1 | COC(=O)COc1nn(-c2ncccc2OC)c(-c2ccc(F)nc2)c1Cl [Example I-346] | 80 | 0 | 20 | 0 | 20 | 0 | 0 | 0 | 0 | 90 | 0 | 0 | 10 | 0 | – | – | – | – | – | – | Post-emergence action against ZEAMX in % (Zea mays (ZEAMX) [8]; 320 g/ha): 0%
2 | O=C(O)CSc1nn(-c2ccccn2)c(-c2ccc(F)nc2)c1Br [Example I-69] | 90 | 20 | – | – | 20 | – | 0 | – | – | 80 | 0 | 10 | 0 | – | 90 | 80 | 100 | 0 | – | – | Pre-emergence action against AMARE in % ([9]; 80 g/ha): 80%; Pre-emergence action against AVEFA in % (Avena fatua (AVEFA) [10]): 80%; Pre-emergence action against ECHCG in % [11]: 90%; Pre-emergence action against MATIN in % [13]: 90%; Post-emergence action against ABUTH in % [15]: 80%; Post-emergence action against ALOMY in % ([16]; 320 g/ha): 90%; Post-emergence action against AMARE in % [17, 27]: 80%; Post-emergence action against AVEFA in % (Avena fatua (AVEFA) [18]; 80 g/ha): 80%; Post-emergence action against AVEFA in % (Avena fatua (AVEFA) [18]; 320 g/ha): 100%; Post-emergence action against LOLRI in % (Lolium rigidum (LOLRI) [19]): 80%; Post-emergence action against MATIN in % [20]: 80%; Post-emergence action against PHBPU in % ([5]; dosage 80 g/ha): 80%; Post-emergence action against SETVI in % (Setaria viridis (SETVI) [21]; dosage 80 g/ha): 80%; Post-emergence action against SETVI in % (Setaria viridis (SETVI) [21]; dosage 320 g/ha): 80%; Post-emergence action against VIOTR in % (Viola tricolor (VIOTR) [22]; 80 g/ha): 80%; Post-emergence action against VIOTR in % (Viola tricolor (VIOTR) [22]; 320 g/ha): 80%
3 | O=C(O)COc1nn(-c2ccnc(Cl)c2)c(-c2ccc(F)nc2)c1Br [III-23] | – | 0 | 0 | 0 | – | – | 0 | 0 | 0 | 80 | 0 | 20 | 0 | 0 | 90 | 100 | 100 | 0 | 90 | 90 | Post-emergence action against ABUTH in % [15]: 80%; Post-emergence action against ALOMY in % ([16]; 320 g/ha): 100%; Post-emergence action against AMARE in % [17, 27]: 90%; Post-emergence action against AVEFA in % (Avena fatua (AVEFA) [18]; 320 g/ha): 80%; Post-emergence action against SETVI in % (Setaria viridis (SETVI) [21]; dosage 80 g/ha): 80%; Post-emergence action against SETVI in % (Setaria viridis (SETVI) [21]; dosage 320 g/ha): 100%; Post-emergence action against VERPE in % [24]: 90%; Post-emergence action against VIOTR in % (Viola tricolor (VIOTR) [22]; 320 g/ha): 90%
4 | O=C(O)CNC(=O)COc1nn(-c2ccnc(F)c2)c(-c2ccc(F)nc2)c1Br [III-26] | – | 0 | – | 0 | – | 0 | 0 | 0 | 0 | – | 10 | 20 | 20 | 20 | – | – | – | 0 | – | – | Pre-emergence action against TRZAS in % ([3]; 320 g/ha): 20%
5 | O=C(O)COc1nn(-c2ccccn2)c(-c2cncc(F)c2)c1C1CC1 [Example I-72] | 90 | 10 | – | 0 | – | 20 | 10 | 0 | 0 | – | 20 | – | – | – | 90 | 100 | 90 | 0 | 100 | 80 | Post-emergence action against ALOMY in % ([16]; 80 g/ha): 90%; Post-emergence action against ORYSA in % (Oryza sativa (ORYSA) [6]; [29]): 10%; Post-emergence action against TRZAS in % ([7]; 20 g/ha): 10%
6 | CCOC(=O)COc1nn(-c2ncccc2OC)c(-c2ccc(F)nc2)c1I [Example I-386] | – | 0 | 0 | 0 | 0 | 20 | 20 | 0 | 0 | – | 0 | 0 | – | 0 | – | – | – | 0 | – | – | Post-emergence action against ZEAMX in % (Zea mays (ZEAMX) [8]; 320 g/ha): 0%
7 | COC(=O)CCOC(=O)COc1nn(-c2ccccn2)c(-c2cncc(F)c2)c1C1CC1 [Example I-71] | – | 0 | – | 20 | – | – | 10 | 10 | – | – | 20 | – | – | 10 | – | 90 | 100 | 10 | 90 | 90 | Post-emergence action against ALOMY in % ([16]; 80 g/ha): 90%; Post-emergence action against ORYSA in % (Oryza sativa (ORYSA) [6]; [29]): 10%; Post-emergence action against TRZAS in % ([7]; 20 g/ha): 10%; Post-emergence action against ZEAMX in % (crop plant compatibility) (Zea mays (ZEAMX) [8]; 20 g/ha, ZEAMX, effect in comparison to untreated controls): 0%
